Laboratory results: patent US20080124753A1, “SpiceMatrix Technology for Taste Compound Identification” (priority 2006, published 2008)
Entries after “also recorded” stand apart in the source; their conditions may differ.

Legend:
TRPA1 [1] = target: T1, TRPA1 (Homo sapiens, UniProt O75762); experiment: FMP membrane potential fluorescence assay, TRPA1 transfected HEK 293 cells; assay type: cell-based; details: for relative stimulation of TRPA1 (SpiceMatrix reactivity): FIG. 2A, relative to untransfected HEK-293 cells (Parentals), among 68 compounds
T1 sequence (O75762 whole entry): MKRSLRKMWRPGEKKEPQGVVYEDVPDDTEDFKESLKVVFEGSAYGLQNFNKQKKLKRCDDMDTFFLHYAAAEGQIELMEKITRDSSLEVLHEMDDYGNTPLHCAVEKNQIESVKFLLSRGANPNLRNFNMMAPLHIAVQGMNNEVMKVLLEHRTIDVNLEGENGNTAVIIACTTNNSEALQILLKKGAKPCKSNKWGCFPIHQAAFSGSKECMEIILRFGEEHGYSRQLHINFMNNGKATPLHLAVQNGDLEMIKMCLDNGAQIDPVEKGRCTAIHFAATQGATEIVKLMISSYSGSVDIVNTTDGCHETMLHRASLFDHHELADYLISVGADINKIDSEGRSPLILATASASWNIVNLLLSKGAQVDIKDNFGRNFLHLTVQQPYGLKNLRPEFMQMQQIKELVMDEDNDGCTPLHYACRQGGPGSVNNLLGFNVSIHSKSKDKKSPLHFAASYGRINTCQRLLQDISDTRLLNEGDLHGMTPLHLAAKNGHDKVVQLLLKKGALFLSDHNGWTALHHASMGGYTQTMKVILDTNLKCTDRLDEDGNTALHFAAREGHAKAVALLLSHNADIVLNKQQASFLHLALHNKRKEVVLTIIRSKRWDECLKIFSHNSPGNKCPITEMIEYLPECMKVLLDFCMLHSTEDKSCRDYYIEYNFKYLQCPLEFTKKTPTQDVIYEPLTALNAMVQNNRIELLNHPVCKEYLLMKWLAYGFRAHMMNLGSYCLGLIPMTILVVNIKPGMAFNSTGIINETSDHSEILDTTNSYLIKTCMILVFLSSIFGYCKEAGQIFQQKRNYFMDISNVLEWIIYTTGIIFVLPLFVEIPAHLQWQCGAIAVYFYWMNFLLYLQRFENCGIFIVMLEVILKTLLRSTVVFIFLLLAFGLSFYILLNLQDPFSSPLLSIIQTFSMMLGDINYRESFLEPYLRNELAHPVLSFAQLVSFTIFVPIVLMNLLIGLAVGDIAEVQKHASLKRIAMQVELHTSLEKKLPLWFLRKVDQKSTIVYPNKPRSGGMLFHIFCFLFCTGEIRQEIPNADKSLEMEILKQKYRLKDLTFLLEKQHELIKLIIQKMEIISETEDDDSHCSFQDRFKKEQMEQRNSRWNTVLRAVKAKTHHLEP
Source text: (§1) As described in greater detail below, HEK 293 cells, transiently transfected with plasmid bearing the genes encoding the various ion channels, were used to develop SpiceMatrix fingerprint assay. Indirect measurement of the changes in ion concentrations within the HEK 293 cells were made using a FMP dye and stimulation of the cells using calcium activating agents. Described below are the conditions for screening using TRPM5. Screening conditions for other TRP ion channels were similar to those described unless otherwise indicated.
1.0×10^6 HEK 293 cells (ATCC) were plated in each well of a 6-well tissue culture dish overnight. The following day, cells were transfected with 4 μg of a pcDNA3.2 vector containing TRPM5 cDNA and 8 μl of Lipofectamine 2000 (Invitrogen), according to the manufacturer's protocol, and incubated overnight. The following day, transfected cells were trypsinized and seeded into 96-well black, clear bottom, poly-D-lysine plates (Corning) at a density of 70,000 cells/well in a 100 μl volume and incubated in a 37° C./5% CO2 incubator overnight.
Once the expression of TRPM5 was confirmed in the HEK cells, 100 μl of the Blue or Red FMP dye (Molecular Devices) was added to each well of plates seeded with the transiently transfected cells. The plate was then incubated in a 37° C./5% CO2 incubator for 1 hour. The plate was read in a FLEXStation microplate reader (Molecular Devices) with an excitation of 530 nm and an emission of 565 nm. The fluorescence was monitored for 3 minutes upon exposure of the cells to a calcium activating agent (carbachol, thrombin peptide or ATP).
For screening of taste compounds, sample dilution sets (four 384 sample plates) were tested in 5, dye-loaded, cell lines to yield 20 assay plates for data collection. One cell plate, a sample plate, and an agonist sample source plate were placed in the FLIPR. To identify samples with agonist activity, 10 μl of samples or standards were added to the cell plate, and sample agonist response fluorescent readings taken for 3 minutes. To identify samples with antagonist activity, agonist, e.g. 100 μM cinnamaldehyde for TRPA1, was added to all wells and agonist response fluorescent readings were taken for 2 minutes. Sample that block this response were nominally antagonists.

TRPA1 [2] = target: T1, TRPA1; details: literature reports; cited from earlier work
TRPM5 = target: T2, TRPM5 (Homo sapiens, UniProt Q9NZQ8); experiment: FMP membrane potential fluorescence assay, TRPM5 transfected HEK 293 cells; assay type: cell-based
T2 construct: The full length TRPM5 was excised from the TOPO TA vector; expressed in transfected cells; host or cells: HEK 293 (ATCC)
T2 sequence (Q9NZQ8 1-1165): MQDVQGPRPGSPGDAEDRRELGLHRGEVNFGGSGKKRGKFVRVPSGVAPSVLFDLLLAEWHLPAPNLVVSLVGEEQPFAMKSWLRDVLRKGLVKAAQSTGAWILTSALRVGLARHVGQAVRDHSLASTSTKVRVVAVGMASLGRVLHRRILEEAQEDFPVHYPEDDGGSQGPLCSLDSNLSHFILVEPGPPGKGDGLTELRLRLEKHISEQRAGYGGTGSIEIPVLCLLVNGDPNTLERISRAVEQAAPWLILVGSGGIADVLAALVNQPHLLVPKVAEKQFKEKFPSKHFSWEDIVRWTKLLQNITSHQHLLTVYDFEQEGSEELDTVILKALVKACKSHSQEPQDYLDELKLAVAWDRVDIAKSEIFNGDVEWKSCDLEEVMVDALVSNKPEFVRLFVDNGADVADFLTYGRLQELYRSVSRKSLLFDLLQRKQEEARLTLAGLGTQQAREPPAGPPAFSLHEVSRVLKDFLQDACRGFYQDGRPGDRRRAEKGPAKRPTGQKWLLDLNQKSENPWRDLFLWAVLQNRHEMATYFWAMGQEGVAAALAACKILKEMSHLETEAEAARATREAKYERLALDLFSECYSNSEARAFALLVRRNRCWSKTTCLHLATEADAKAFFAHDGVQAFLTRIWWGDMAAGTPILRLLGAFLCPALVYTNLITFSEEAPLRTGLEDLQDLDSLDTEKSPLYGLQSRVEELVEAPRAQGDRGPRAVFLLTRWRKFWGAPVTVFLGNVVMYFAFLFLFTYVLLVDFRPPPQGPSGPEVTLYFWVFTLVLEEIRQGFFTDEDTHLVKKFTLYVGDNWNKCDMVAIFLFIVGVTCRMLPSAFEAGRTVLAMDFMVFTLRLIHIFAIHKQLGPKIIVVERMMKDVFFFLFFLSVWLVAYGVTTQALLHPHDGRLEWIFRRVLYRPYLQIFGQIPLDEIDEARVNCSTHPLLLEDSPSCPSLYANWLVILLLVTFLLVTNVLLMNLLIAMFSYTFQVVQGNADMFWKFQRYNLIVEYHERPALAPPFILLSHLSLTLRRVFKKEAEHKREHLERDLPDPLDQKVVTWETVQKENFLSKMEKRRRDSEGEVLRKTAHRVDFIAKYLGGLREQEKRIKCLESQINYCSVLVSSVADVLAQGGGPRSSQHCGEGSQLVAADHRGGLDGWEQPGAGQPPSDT
Source text: As described in greater detail below, HEK 293 cells, transiently transfected with plasmid bearing the genes encoding the various ion channels, were used to develop SpiceMatrix fingerprint assay. Indirect measurement of the changes in ion concentrations within the HEK 293 cells were made using a FMP dye and stimulation of the cells using calcium activating agents. Described below are the conditions for screening using TRPM5. Screening conditions for other TRP ion channels were similar to those described unless otherwise indicated. […]
Once the expression of TRPM5 was confirmed in the HEK cells, 100 μl of the Blue or Red FMP dye (Molecular Devices) was added to each well of plates seeded with the transiently transfected cells. […] The plate was read in a FLEXStation microplate reader (Molecular Devices) with an excitation of 530 nm and an emission of 565 nm. The fluorescence was monitored for 3 minutes upon exposure of the cells to a calcium activating agent (carbachol, thrombin peptide or ATP).
For screening of taste compounds, sample dilution sets (four 384 sample plates) were tested in 5, dye-loaded, cell lines to yield 20 assay plates for data collection. […] To identify samples with agonist activity, 10 μl of samples or standards were added to the cell plate, and sample agonist response fluorescent readings taken for 3 minutes. […]

TRPV1 [3] = target: T3, TRPV1 (Homo sapiens, UniProt Q8NER1); experiment: FMP membrane potential fluorescence assay, TRPV1 transfected HEK 293 cells; assay type: cell-based
T3 sequence (Q8NER1 whole entry): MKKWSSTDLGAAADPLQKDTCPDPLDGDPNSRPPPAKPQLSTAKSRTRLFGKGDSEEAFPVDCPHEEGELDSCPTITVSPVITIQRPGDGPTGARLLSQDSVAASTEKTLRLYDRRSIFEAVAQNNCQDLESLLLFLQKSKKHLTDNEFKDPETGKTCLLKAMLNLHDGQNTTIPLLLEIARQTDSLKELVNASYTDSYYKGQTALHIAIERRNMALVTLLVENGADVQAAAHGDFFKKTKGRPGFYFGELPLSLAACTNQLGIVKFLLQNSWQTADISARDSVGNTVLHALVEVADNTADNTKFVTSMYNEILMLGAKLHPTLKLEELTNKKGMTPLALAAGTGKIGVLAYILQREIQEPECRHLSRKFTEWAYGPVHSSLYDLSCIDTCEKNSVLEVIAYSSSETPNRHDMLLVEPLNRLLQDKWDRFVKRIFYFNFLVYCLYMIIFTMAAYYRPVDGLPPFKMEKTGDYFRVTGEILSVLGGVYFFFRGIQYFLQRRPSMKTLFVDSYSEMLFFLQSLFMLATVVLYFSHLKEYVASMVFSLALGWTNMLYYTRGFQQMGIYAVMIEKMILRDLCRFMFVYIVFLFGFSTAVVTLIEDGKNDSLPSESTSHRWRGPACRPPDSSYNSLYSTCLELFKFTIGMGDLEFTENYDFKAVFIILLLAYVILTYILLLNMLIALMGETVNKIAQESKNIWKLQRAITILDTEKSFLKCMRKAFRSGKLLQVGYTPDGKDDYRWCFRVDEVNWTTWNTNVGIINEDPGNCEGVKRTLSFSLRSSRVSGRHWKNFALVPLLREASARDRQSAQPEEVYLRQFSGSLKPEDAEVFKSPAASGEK
Source text: as §1
(§2) 1.0×10^6 HEK 293 cells (ATCC) were plated in each well of a 6-well tissue culture dish overnight. The following day, cells were transfected with 4 μg of a pcDNA3.2 vector containing TRPM5 cDNA and 8 μl of Lipofectamine 2000 (Invitrogen), according to the manufacturer's protocol, and incubated overnight. […]
(§3) Once the expression of TRPM5 was confirmed in the HEK cells, 100 μl of the Blue or Red FMP dye (Molecular Devices) was added to each well of plates seeded with the transiently transfected cells. […] The plate was read in a FLEXStation microplate reader (Molecular Devices) with an excitation of 530 nm and an emission of 565 nm. The fluorescence was monitored for 3 minutes upon exposure of the cells to a calcium activating agent (carbachol, thrombin peptide or ATP). […]

mouse TRPA1 = target: T4, mouse TRPA1 (Mus musculus, UniProt Q8BLA8); details: mouse TRPA1-CHO cells, literature report; cited from earlier work
T4 construct: host or cells: CHO
T4 sequence (Q8BLA8 whole entry): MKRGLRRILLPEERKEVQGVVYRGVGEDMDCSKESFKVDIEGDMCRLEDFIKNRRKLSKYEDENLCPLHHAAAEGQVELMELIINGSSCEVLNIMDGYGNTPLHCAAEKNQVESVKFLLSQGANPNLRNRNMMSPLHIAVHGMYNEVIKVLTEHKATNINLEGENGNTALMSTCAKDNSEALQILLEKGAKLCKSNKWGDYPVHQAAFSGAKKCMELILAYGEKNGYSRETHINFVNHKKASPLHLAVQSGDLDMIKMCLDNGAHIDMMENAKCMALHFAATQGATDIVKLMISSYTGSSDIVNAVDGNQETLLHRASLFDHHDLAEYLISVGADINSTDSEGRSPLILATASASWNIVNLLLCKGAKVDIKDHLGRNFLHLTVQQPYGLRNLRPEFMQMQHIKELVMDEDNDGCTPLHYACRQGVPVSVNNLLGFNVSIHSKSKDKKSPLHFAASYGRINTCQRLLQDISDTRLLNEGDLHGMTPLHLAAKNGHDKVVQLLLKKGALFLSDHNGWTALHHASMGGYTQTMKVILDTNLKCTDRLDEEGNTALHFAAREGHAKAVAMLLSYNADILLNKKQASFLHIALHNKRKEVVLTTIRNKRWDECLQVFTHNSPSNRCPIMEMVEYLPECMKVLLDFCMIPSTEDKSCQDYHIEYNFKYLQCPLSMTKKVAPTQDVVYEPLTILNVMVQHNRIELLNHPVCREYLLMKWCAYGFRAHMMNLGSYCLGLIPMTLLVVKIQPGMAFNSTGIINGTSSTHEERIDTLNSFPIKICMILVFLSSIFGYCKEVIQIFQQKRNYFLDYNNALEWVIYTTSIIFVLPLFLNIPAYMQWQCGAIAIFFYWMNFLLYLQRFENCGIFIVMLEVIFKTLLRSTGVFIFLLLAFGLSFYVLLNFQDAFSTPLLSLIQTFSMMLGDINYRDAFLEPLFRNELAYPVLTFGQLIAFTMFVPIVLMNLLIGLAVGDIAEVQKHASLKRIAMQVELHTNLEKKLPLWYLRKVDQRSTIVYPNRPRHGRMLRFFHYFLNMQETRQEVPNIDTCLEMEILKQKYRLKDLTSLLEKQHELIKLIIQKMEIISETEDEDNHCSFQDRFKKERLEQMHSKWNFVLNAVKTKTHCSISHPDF

TRPM8 [4] = target: T5, TRPM8 (Homo sapiens, UniProt Q7Z2W7); details: literature reports; cited from earlier work
T5 sequence (Q7Z2W7 whole entry): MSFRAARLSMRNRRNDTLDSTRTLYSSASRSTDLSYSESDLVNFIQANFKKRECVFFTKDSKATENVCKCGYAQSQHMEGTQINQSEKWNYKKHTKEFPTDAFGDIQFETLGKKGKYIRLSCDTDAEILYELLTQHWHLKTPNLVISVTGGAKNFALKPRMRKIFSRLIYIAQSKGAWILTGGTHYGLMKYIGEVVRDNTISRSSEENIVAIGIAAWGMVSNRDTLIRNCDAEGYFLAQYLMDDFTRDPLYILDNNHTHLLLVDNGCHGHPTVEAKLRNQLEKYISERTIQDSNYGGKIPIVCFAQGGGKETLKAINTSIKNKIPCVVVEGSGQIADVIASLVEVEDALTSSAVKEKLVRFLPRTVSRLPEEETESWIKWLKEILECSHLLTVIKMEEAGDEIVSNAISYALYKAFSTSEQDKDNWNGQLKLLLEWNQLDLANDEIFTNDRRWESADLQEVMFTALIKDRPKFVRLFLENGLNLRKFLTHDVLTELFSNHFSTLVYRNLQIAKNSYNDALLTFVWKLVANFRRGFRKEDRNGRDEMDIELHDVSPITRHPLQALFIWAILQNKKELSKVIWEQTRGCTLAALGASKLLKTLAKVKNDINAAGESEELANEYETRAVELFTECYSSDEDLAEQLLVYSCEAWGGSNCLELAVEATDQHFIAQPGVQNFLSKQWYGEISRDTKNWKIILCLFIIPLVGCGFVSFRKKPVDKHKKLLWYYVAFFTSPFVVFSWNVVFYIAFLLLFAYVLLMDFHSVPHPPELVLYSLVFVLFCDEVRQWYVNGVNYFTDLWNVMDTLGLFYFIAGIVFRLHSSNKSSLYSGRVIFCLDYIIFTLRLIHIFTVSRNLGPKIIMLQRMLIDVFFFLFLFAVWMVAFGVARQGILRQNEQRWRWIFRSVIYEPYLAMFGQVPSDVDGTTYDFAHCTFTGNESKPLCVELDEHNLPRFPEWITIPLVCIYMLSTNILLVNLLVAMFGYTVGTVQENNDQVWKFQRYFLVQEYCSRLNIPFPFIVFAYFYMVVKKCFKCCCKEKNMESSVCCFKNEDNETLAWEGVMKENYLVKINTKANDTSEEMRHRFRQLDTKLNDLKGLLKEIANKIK

TRPV1 [5] = target: T3, TRPV1; details: literature report (Calixto et al.); cited from earlier work
TRPM8 [6] = target: T5, TRPM8; experiment: FMP membrane potential fluorescence assay, TRPM8 transfected HEK 293 cells; assay type: cell-based; details: FIG. 1D, FLIPR
Source text: as §1, §2, §3

Structure (SMILES)	relative stimulation of TRPA1 (SpiceMatrix reactivity) (TRPA1 [1])	activation of TRPA1 (TRPA1 [2])	increase in intracellular free Ca2+ (mouse TRPA1)	activation of TRPM8 (TRPM8 [4])	activation of TRPV1 (TRPV1 [5])	also measured
CC1CCC(C(C)C)C(O)C1 (single isomer, unassigned; (-)) [(−) menthol]	greatest stimulation of TRPA1	–	–	–	–	–
CCCCCc1cc(O)c2c(c1)OC(C)(C)[C@@H]1CCC(C)=C[C@@H]21 [A^9-tetrahydrocannabinol]	–	activated	–	–	–	–
C=CCN=C=S [allyl isothiocyanate]	highly reactive	specific activators of TRPA1	–	–	–	relative stimulation of TRPM5 (SpiceMatrix reactivity) (TRPM5; FIG. 2, relative to untransfected HEK-293 cells (Parentals)): highly reactive
COc1cc(CNC(=O)CCCC/C=C/C(C)C)ccc1O [capsaicin]	–	–	–	–	–	change in relative fluorescent intensity of a voltage-sensitive dye (TRPV1 [3]; FIG. 1C, TRPV1 transfected cells, FMP dye, FLIPR): strong spike in relative fluorescence; also recorded: activates TRPV1
C[N+](C)(C)CCOC(N)=O [carbachol]	–	–	–	–	–	change in relative fluorescent intensity of a voltage-sensitive dye (TRPM5; FIG. 1B, TRPM5 transfected cells, FMP dye, FLIPR): strong spike in relative fluorescence; also recorded: increases TRPM5
O=CC=Cc1ccccc1 [cinnamaldehyde]	greatest stimulation of TRPA1	activated; also recorded: specific activators of TRPA1	–	–	–	change in relative fluorescent intensity of a voltage-sensitive dye (TRPA1 [1]; FIG. 1A, TRPA1 transfected cells, FMP dye, FLIPR): strong spike in relative fluorescence; also recorded: activates TRPA1
C=CCc1ccc(O)c(OC)c1 [eugenol]	–	activate	sharp increase	activate	activate	–
CCCCC[C@H](O)CC(=O)CCc1ccc(O)c(OC)c1 [gingerol]	–	activate	sharp increase	activate	activate	relative stimulation of TRPV1 (SpiceMatrix reactivity) (TRPV1 [3]; FIG. 2A, relative to untransfected HEK-293 cells (Parentals), among 68 compounds): highest degree of stimulation to TRPV1
CC1CCC(C(C)C)C(O)C1 (stereo not shown) [menthol]	–	–	–	activate the TRPM8	–	change in relative fluorescent intensity of a voltage-sensitive dye (TRPM8 [6]): strong spike in relative fluorescence; also recorded: activates TRPM8
COC(=O)c1ccccc1O [methyl salicylate]	–	activate	sharp increase	activate	activate	–
